The results in this text go back to patent EP4585599A1, “NITROGEN-CONTAINING FUSED RING COMPOUND, INTERMEDIATE THEREOF, PREPARATION METHOD THEREFOR AND USE THEREOF” (Hangzhou Synrx Therapeutics Biomedical Technology Co., Ltd., priority 2022, dated 2024).

Each structure is given as a SMILES string. Values after ≈ are worked out from the molar mass of the structure shown. Read-outs that look alike come from different tables or passages of the source.

For series [1], the target named is T1, helicase domain of the Pol θ protein (Homo sapiens, UniProt O75417).
T1 construct: The helicase domain of the Pol θ protein was purified from insect protein expression system; made in house; host or cells: insect protein expression system
T1 sequence (O75417 102-554 limits assumed): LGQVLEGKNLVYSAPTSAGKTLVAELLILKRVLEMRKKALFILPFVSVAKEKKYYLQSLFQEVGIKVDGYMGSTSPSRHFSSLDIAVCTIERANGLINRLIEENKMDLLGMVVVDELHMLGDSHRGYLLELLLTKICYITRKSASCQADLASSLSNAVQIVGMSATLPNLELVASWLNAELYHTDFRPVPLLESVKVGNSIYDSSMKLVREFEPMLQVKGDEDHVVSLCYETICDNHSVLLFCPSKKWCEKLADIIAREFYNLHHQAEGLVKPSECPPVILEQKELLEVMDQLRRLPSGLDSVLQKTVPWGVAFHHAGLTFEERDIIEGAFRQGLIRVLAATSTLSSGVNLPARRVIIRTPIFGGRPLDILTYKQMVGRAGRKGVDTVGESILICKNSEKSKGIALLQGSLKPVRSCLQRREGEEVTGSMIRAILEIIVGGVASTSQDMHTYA
Kind of series: Biochemical Activity Assay (ADP Glo Assay) of Pol θ inhibitor, ATPase activity. (ADP-Glo turns the ADP formed in a reaction into a luminescent signal.)

For series [2] the following is noted: read-out: Cell viability assay IC50.
Series [3] is described as follows: cells. Particulars: Homo sapiens, DLD-1, 240 h.
The nature of series [4]: in vitro. Particulars: mouse, microsomes, pH 7.4.
Procedure: (§1) a) Phosphate buffer solution (PBS): 100 mM, pH=7.4±0.1.
(§2) 73.21 g of dipotassium phosphate trihydrate K2HPO4·3H2O (MW=228.22) and 10.78 g of potassium dihydrogen phosphate KH2PO4 (MW=136.09) were dissolved in 4000 mL of pure water, with pH adjusted to 7.4 ± 0.1 using phosphoric acid or potassium hydroxide.
(§3) b) Microsome working solution: 1.0 mg/mL.
(§4) The purchased mouse liver microsomes (IPHASE, Cat. No.: 0121E1.01, Lot. No.: 22F001) were of 20 mg/mL (10 mg, 0.5 mL), with 225 µL added to 4275 µL of PBS solution to prepare 1.0 mg/mL microsome working solution.
(§5) (Note whether the precipitation occurred) • III, 200 µL of the 40 mM NADPH stock solution, 2.0 mL of the 12 mM magnesium chloride stock solution, and 1.80 mL of the PBS solution were used to prepare the working solution of the NADPH regeneration system, containing the 2 mM NADPH solution and the 6 mM magnesium chloride mixture.
(§6) d) Stop solution: containing 200 ng/mL tolbutamide acetonitrile solution. • I, 6.006 mg of tolbutamide (MV=270.35, 99.9%) solids were weighed, and 30 mL of acetonitrile was added to prepare the 200 µg/mL of tolbutamide stock solution. • II, 500 mL of acetonitrile was added to 500 µL of the 200 µg/mL tolbutamide stock solution to obtain the tolbutamide acetonitrile solution with a concentration of 200 ng/mL.
(§7) e) Test sample/reference working solution: 100 µM test sample/reference working solution • I, 1 mL of 1.0 mg/mL testosterone (MV=288.42) solution was purchased, and 155.8 µL of ACN was added to prepare a testosterone stock solution with a concentration of 3 mM. • II, 1450 µL of acetonitrile was added to 50 µL of the 3 mM testosterone stock solution to prepare the 100 µM testosterone working solution. • III, 6.98 mg of propafenone hydrochloride was weighed, and 1.8433 mL of acetonitrile was added to dissolve the propafenone hydrochloride; and 5.67 mg of diclofenac sodium was weighed, and 1.783 mL of acetonitrile was added to dissolve the diclofenac sodium. 10 mM propafenone stock solution and 10 mM diclofenac stock solution were prepared respectively. • IV, 10 µL of the propafenone stock solution and 10 mL of the diclofenac stock solution were each added with 990 µL of acetonitrile to prepare 100 µM propafenone working solution and 100 µM diclofenac working solutions.
(§8) • a) 8 incubation plates were prepared, named T0, T5, T15, T30, T45, T60, Blank60 and NCF60, respectively. • b) 100 µL of microsome working solution was added to each of T0, T5, T15, T30, T45, T60, Blank60 and NCF60; 2 µL of the test (reference) working solution was added to each of T0, T5, T15, T30, T45, T60 and NCF60; and 2 µL of acetonitrile was added to Blank60. • c) T5, T15, T30, T45, T60, and Blank60 were pre-incubated in a 37°C water bath for 10 minutes. • d) 600 µL of the stop solution was added to the sample T0 to stop the reaction; and 98 µL of phosphate buffer solution (PBS) was added to NCF60, and NCF60 samples without the NADPH regeneration system were taken as negative control. • e) 98 µL of the working solution of the NADPH regeneration system was supplemented to the sample T0 that is stopped in the previous step; and after pre-incubation, 98 µL of the working solution of the NADPH regeneration system was added to each of T5, T15, T30, T45, T60, and Blank60 to initiate the reaction.
Series [5] is described as follows: Solubility assay. Particulars: pH 7.4, aqueous buffer, kinetic from dmso stock; for solubility at 2 h: phosphate buffer.
Procedure: 1) Prepare 0.1 M Na2PO4 buffer (pH 7.4): 11 g of Na2HPO4 (FW: 141.96) and 3.5 g of NaH2PO4_2H2O (FW: 156.03) were added to 1L of Mili-Q water, with pH adjusted to 7.4 using phosphoric acid or sodium hydroxide. 2) 10 µL of the compound to be tested (concentration: 10 mM in DMSO) was added to 990 µL of Na2PO4 buffer (final DMSO concentration: 1%) prepared in Step 1). 3) The sample tube was shaken at room temperature for 2 hours (1000 rpm/min). 4) Prepare the calibration curve: a) Prepare 300 µM spiking solution (SS): 6 µL (10 mM in DMSO) of the stock solution of the compound to be tested was added to 194 µL of MeOH/ACN (4:1); and b) Draw the standard curve.
5) The samples were centrifuged (10 min, 12,000 rpm) to precipitate insoluble particles. The supernatant was filtered with a 0.22 µm filter membrane, and then transferred to a new centrifuge tube. 6) The supernatant was diluted 10-fold with 100 mM buffer. The supernatant (10 µL) was added to the buffer (100 mM, 90 µL) and diluted 10-fold. 7) The sample was prepared under LC-MS/MS (API 4000) detection.
10 µL of the sample (10-fold dilution) and a standard curve sample were added to 400 µL of (MeOH: ACN=1:1) solution, and detected on the instrument, and the solubility value was calculated according to the standard curve.
A short description of series [6]: Mouse PK assay after oral administration. Particulars: for MRT / bioavailability / half-life: mouse, po; for MRT / bioavailability / half-life / Area under curve (0-t; hr * ng/mL) / Peak concentration: plasma; for Time to peak / Area under curve (0-t; hr * ng/mL) / Peak concentration: mice, oral.
Procedure: The objective of this experiment was to study the pharmacokinetics of the test compound in ICR mice (male, 18-22 g, 4-6 weeks old, Beijing Vital River Laboratory Animal Technology Co., Ltd.) after oral administration. The specific experimental procedures were as follows: • 1) The compound was dissolved in 5% DMSO + 40% PEG + 20% (10% TPGS) in water + 35% water at a concentration of 0.5 mg/mL, and then administered orally (5 mL/Kg); and • 2) Blood samples were collected, with 0.03 mL collected at 0.25 h, 0.5 h, 1 h, 2 h, 4 h, 8 h, and 24 h, and EDTA-K2 was added. […] The blood was centrifuged for 5 min at 4000 g in a centrifuge at 4°C to collect plasma. Plasma samples were aliquoted into clean polyethylene microcentrifuge tubes and then stored in a freezer at -75 ± 15°C before analysis; and • 3) Samples were analyzed, and the concentration of the compound in each plasma sample was analyzed by LC-MS/MS. For plasma measurements, pharmacokinetic parameters were calculated using WinNonlin (PhoenixTM, version 8.3) or other similar software.
Series [7] in a line: Metabolic stability of mouse liver microsome assay. The settings on record: liver microsomes, pH 7.4. Background: Liver microsomes are a subcellular fraction often used to study metabolism.
Procedure: as §1, §2, §3, §4, §5, §6, §7, §8
For series [8] the following is noted: mouse, microsomes.
Procedure: as §1, §2, §3, §4, §5, §6, §7, §8
[9] abbreviates: ADP-Glo assay, ATPase activity of Pol θ helicase domain, ssDNA substrate; read-out: Biochemical assay IC50.
The mark [10] stands for this setting: read-out: Cell viability assay IC50 (nM).
The mark [11] stands for this setting: read-out: Cell viability assay IC50 (nM), CTG assay, CellTiter Glo, read on Day 10, cell line not given.

In general, IC50 refers to the concentration needed to halve the response being measured. The half-life is how long it takes for the measured level to halve. A low value points to fast loss. A word on the solubility: it is the dissolved amount per volume that the medium holds. Higher therefore signals a readily soluble substance. The term MRT denotes the average time that molecules of a dose stay in the body. `COc1cnc(Cl)cc1-c1cc(C)ncc1C(=O)Nc1nc2ccc(N3CCC(O)CC3)nc2s1` [Example 46]: the IC50 in series [1] (setting [9]) came to 8.31 nM. In addition, the IC50 in series [1] (ADP-Glo, ssDNA substrate, 60 min at room temperature; read-out: Biochemical assay IC50) is under 50 nM. Moreover, the IC50 in series [2] is 60.7 nM. Further, in series [3] (setting [10]), the IC50 was under 100 nM. In series [4], this compound had a half-life at 1 µM of 7.9 h. Moreover, the solubility at 2 h in series [5] turned out to be 61.5 µM (≈ 31.4 µg/mL). Besides, in series [6] (male, ICR, 25 mg/kg), the MRT came to 4.13 h, the bioavailability stood at 127% and the half-life is 1.59 h. Moreover, in series [6] (administration dose 25 mg/kg), the “Time to peak” value stood at 2.0 h, the “Area under curve (0-t; hr * ng/mL)” value worked out at 46.041 µg·h/mL and the “Peak concentration” value is on record as 7217 ng/mL.
Turning to `COc1cnc(Cl)cc1-c1cc(C)ncc1C(=O)Nc1nc2cnc(-c3c(C)noc3C)cc2s1` [Example 155], the IC50 in series [1] (read-out: Biochemical assay IC50; ADP-Glo assay, ATPase activity of Pol θ helicase domain, ssDNA substrate) was found to be 5.75 nM. Also, the IC50 in series [3] (setting [10]) worked out at 19.2 nM. The solubility in series [5] (0.1 m sodium phosphate buffer) worked out at 7.81 µM (≈ 3.96 µg/mL). In series [6] (administration dose 30 mg/kg), the “Time to peak” value came to 1.0 h, the “Area under curve (0-t; hr * ng/mL)” value is 321.917 µg·h/mL and the “Peak concentration” value amounted to 43083 ng/mL. In series [6] (30 mg/kg), this compound gave an MRT of 4.56 h and a half-life of 2.26 h. This compound returned a half-life at 1 µM in series [7] of 11.6 h.
For `COc1cnc(Cl)c(F)c1-c1cc(C)ncc1C(=O)Nc1nc2cnc(-c3c(C)nnn3C)cc2s1` [Example 172], the IC50 in series [1] (setting [9]) is 2.84 nM. In addition, the “Half-life (T1/2, min)” value in series [8] is given as “∞”. In series [5], this compound came in with a solubility at 2 h of 63.7 µM (≈ 33.4 µg/mL). In series [6] (male, ICR, 30 mg/kg), the MRT was 5.91 h, the bioavailability was determined as 206% and the half-life was 5.1 h. For the same compound, in series [6] (administration dose 30 mg/kg), the “Time to peak” value stood at 0.25 h, the “Area under curve (0-t; hr * ng/mL)” value was 429.051 µg·h/mL and the “Peak concentration” value is 43555 ng/mL.
Regarding `COc1cnc(C(F)F)cc1-c1cc(C)ncc1C(=O)Nc1nc2cnc(-c3c(C)nnn3C)cc2s1` [Example 180, 2'-(difluoromethyl)-N-(6-(1,4-dimethyl-1H-1,2,3-triazol-5-yl)thiazolo[4,5-c]pyridin-2-yl) -5'-methoxy-6-methyl-[4,4'-bipyridine]-3-carboxamide], the IC50 in series [1] (setting [9]) turned out to be 1.63 nM. For the same compound, the “Half-life (T1/2, min)” value in series [8] is on record as “∞”. Besides, the concentration for half-maximal inhibition (IC50) in series [3] (setting [11]) was found to be 5.62 nM. The compound also came in with a solubility at 2 h in series [5] of 91.1 µM (≈ 47.6 µg/mL). In series [6] (male, ICR, 30 mg/kg), the MRT worked out at 2.88 h and the half-life was 1.75 h. In series [6] (administration dose 30 mg/kg), the “Time to peak” value amounted to 1.08 h, the “Area under curve (0-t; hr * ng/mL)” value was 176.788 µg·h/mL and the “Peak concentration” value is 44133 ng/mL.
Consider `COc1cnc(Cl)c(F)c1-c1cc(C)ncc1C(=O)Nc1nc2cnc(-c3c(C)nnn3C)c(F)c2s1` [Example 217], for which the IC50 in series [1] (setting [9]) amounted to 3.63 nM. For the same compound, the “Half-life (T1/2, min)” value in series [8] was “∞”. Also, the half-inhibitory concentration (IC50) in series [3] (setting [11]) was under 1.52 nM. The compound also gave a solubility at 2 h in series [5] of 82.6 µM (≈ 44.8 µg/mL). Besides, in series [6] (male, ICR, 30 mg/kg), the MRT was 3.95 h, the bioavailability amounted to 259% and the half-life was 2.16 h. In addition, in series [6] (administration dose 30 mg/kg), the “Time to peak” value was determined as 0.67 h, the “Area under curve (0-t; hr * ng/mL)” value is 852.39 µg·h/mL and the “Peak concentration” value was 156130 ng/mL.
